Results on 17 molecules are retold here after patent publication US10829473B2, “Modulators of the cystic fibrosis transmembrane conductance regulator protein and methods of use” (AbbVie Overseas S.Á.R.L., priority 2017, dated 2020).

Usually EC50 stands for the concentration that produces a half-maximal response.

Like-named read-outs stand apart in the source and are kept apart here.

In the test the target is T1, F508delCFTR (Homo sapiens, UniProt P13569, DEL508-508).
T1 construct: expressed in transfected cells; host or cells: CFBE41o- human lung derived epithelial cells (CFBE41o-F508delCFTR-HRP), doxycycline-inducible
T1 sequence (P13569 with tags, fused parts or gaps DEL508-508): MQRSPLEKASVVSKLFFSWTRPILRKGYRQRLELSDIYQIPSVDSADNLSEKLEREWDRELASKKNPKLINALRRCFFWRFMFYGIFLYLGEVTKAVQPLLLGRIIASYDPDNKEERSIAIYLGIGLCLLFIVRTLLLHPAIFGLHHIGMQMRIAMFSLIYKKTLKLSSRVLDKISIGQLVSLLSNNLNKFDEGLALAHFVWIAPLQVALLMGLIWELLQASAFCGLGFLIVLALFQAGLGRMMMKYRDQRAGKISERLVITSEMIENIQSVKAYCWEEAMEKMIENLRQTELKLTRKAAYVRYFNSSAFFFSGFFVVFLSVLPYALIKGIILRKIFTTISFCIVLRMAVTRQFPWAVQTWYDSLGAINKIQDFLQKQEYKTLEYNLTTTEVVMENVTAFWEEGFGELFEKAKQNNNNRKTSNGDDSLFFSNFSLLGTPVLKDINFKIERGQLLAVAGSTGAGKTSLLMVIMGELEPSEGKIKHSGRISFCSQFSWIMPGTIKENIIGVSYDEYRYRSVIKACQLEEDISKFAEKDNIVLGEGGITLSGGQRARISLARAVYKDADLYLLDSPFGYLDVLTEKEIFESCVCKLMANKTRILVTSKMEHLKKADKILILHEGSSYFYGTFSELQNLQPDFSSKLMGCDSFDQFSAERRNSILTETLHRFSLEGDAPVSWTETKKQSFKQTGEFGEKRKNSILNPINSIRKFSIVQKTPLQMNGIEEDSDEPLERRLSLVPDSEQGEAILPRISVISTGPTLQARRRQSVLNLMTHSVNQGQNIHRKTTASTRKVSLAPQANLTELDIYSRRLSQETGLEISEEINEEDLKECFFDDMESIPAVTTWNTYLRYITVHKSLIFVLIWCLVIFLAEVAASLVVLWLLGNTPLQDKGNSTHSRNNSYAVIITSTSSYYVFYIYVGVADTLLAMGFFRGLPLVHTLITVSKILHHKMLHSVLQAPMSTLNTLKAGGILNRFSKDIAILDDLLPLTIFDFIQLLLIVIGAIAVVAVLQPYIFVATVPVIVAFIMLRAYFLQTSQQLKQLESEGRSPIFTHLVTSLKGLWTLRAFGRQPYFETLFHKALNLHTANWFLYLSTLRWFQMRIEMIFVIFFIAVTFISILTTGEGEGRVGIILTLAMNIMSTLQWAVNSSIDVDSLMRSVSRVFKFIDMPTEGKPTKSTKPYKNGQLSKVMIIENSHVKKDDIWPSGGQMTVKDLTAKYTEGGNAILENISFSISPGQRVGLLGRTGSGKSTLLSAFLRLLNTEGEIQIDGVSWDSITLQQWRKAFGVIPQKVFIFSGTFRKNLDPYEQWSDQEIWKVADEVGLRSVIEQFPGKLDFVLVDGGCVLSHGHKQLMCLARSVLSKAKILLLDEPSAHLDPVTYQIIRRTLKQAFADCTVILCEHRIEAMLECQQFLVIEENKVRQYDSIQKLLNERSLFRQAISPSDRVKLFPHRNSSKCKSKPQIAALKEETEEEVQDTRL
As to the kind of experiment: Cell Surface Expression-Horse Radish Peroxidase (CSE-HRP) Assay.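 For EC50 (with co-corrector): co-corrector chromenyl benzoic acid corrector at 2 or 3 µM.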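 For Maximum % activity (without co-corrector): % of on-plate positive control chromenyl benzoic acid corrector at 2 or 3 µM.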 The class given is cell-based. Particulars: for Maximum % activity (with co-corrector) / Emax: maximum at any tested concentration; for Emax: read-out: Maximum % activity (without co-corrector). In outline:
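Corrector compounds were given as 8-point 3-fold series from 20 or 30 μM, with or without a 2 μM co-corrector, for 18-24 h at 33 °C. Surface HRP was read by luminol luminescence as % of positive control; variable-Hill-slope sigmoidal fitting gave EC50 from triplicate plates.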

The mark [1] stands for this setting: test compound alone, without co-corrector, read-out: EC50 (without co-corrector).
Where [2] appears, read: with co-corrector, read-out: EC50 (with co-corrector).

In the case of `COc1ccc(C2CCC2)cc1C1(C(=O)NS(=O)(=O)c2cccc3cnn(C)c23)CCC1` [Example I-25, 1-(5-cyclobutyl-2-methoxyphenyl)-N-(1-methyl-1H-indazole-7-sulfonyl)cyclobutane-1-carboxamide], the 50% effective concentration (EC50) was under 3 µM under setting [1] and under 3 µM under setting [2]. The “Maximum % activity (with co-corrector)” value (with co-corrector) is reported as “+++ (≥350)”. The Emax (without co-corrector) was over 150%.
As for `COc1ccc(C2CC2)cc1C1(C(=O)NS(=O)(=O)c2cccc3c2CCCN3)CCC1` [Example I-27, 1-(5-cyclopropyl-2-methoxyphenyl)-N-(1,2,3,4-tetrahydroquinoline-5-sulfonyl)cyclobutane-1-carboxamide], the EC50 is, setting by setting: under setting [1], 3 to 10 µM; under setting [2], under 3 µM. The “Maximum % activity (with co-corrector)” value (with co-corrector) was “+++ (≥350)”. Moreover, under “without co-corrector”, the Emax is over 150%.
As to `COc1ccc(OC)c(C2(C(=O)NS(=O)(=O)c3cccc4ccccc34)CC2)c1` [Example I-28, 1-(2,5-dimethoxyphenyl)-N-(naphthalene-1-sulfonyl)cyclopropane-1-carboxamide], the 50% effective concentration (EC50) runs as follows: under setting [1], under 3 µM; under setting [2], under 3 µM. Also, the “Maximum % activity (with co-corrector)” value (with co-corrector) is listed as “+++ (≥350)”. For the setting “without co-corrector”, the Emax was over 150%.
Turning to `COc1ccc(OC)c(C2(C(=O)NS(=O)(=O)c3cccc4ncccc34)CC2)c1` [Example I-29, 1-(2,5-dimethoxyphenyl)-N-(quinoline-5-sulfonyl)cyclopropane-1-carboxamide], the concentration giving a half-maximal response (EC50) is under 3 µM under setting [1] and under 3 µM under setting [2]. Further, the “Maximum % activity (with co-corrector)” value (with co-corrector) is “+++ (≥350)”. Moreover, the Emax (without co-corrector) was over 150%.
Take `CN(C)c1ncc(C(F)(F)F)cc1C1(C(=O)NS(=O)(=O)c2cccc3ccccc23)CC1` [Example I-30, 1-[2-(dimethylamino)-5-(trifluoromethyl)pyridin-3-yl]-N-(naphthalene-1-sulfonyl)cyclopropane-1-carboxamide]: the EC50 under setting [1] was under 3 µM and the 50% effective concentration (EC50) under setting [2] was under 3 µM. Besides, the “Maximum % activity (with co-corrector)” value (with co-corrector) was “+++ (≥350)”. Besides, where the note is “without co-corrector”, the Emax is over 150%.
`CCOc1ccc(OC)c(C2(C(=O)NS(=O)(=O)c3cccc4ncccc34)CC2)c1` [Example I-31, 1-(5-ethoxy-2-methoxyphenyl)-N-(quinoline-5-sulfonyl)cyclopropane-1-carboxamide]: the EC50 is, setting by setting: under setting [1], under 3 µM; under setting [2], under 3 µM. Moreover, the “Maximum % activity (with co-corrector)” value (with co-corrector) is “+++ (≥350)”. In addition, the Emax (without co-corrector) is over 150%.
Regarding `COc1ccc(OC2CCC2)cc1C1(C(=O)NS(=O)(=O)c2cccc3ncccc23)CC1` [Example I-32, 1-[5-(cyclobutyloxy)-2-methoxyphenyl]-N-(quinoline-5-sulfonyl)cyclopropane-1-carboxamide], the concentration for a half-maximal effect (EC50) was under 3 µM under setting [1] and under 3 µM under setting [2]. Also, the “Maximum % activity (with co-corrector)” value (with co-corrector) is “+++ (≥350)”. Besides, the Emax (without co-corrector) is over 150%.
With `COc1ccc(C2CCC2)cc1C1(C(=O)NS(=O)(=O)c2cccc3nc(C)ccc23)CCC1` [Example I-33, 1-(5-cyclobutyl-2-methoxyphenyl)-N-(2-methylquinoline-5-sulfonyl)cyclobutane-1-carboxamide], the 50% effective concentration (EC50) is, setting by setting: under setting [1], 3 to 10 µM; under setting [2], under 3 µM. In addition, for the setting “with co-corrector”, the “Maximum % activity (with co-corrector)” value is “+++ (≥350)”. For the same molecule, where the note is “without co-corrector”, the Emax was over 150%.
As for `COc1ccc(C(C)(C)C)cc1C1(C(=O)NS(=O)(=O)c2cccc3ncccc23)CC1` [Example I-34, 1-(5-tert-butyl-2-methoxyphenyl)-N-(quinoline-5-sulfonyl)cyclopropane-1-carboxamide], the EC50 reads like this: under setting [1], under 3 µM; under setting [2], under 3 µM. Also, the “Maximum % activity (with co-corrector)” value (with co-corrector) is recorded as “+++ (≥350)”. The Emax (without co-corrector) was over 150%.
Take `COc1ccc(C(C)C)cc1C1(C(=O)NS(=O)(=O)c2cccc3ncccc23)CC1` [Example I-35, 1-[2-methoxy-5-(propan-2-yl)phenyl]-N-(quinoline-5-sulfonyl)cyclopropane-1-carboxamide]: the EC50 reads like this: under setting [1], under 3 µM; under setting [2], under 3 µM. The “Maximum % activity (with co-corrector)” value (with co-corrector) is on record as “+++ (≥350)”. Besides, the Emax (without co-corrector) is over 150%.
`COc1cc(F)c(C(C)C)cc1C1(C(=O)NS(=O)(=O)c2cccc3ncccc23)CC1` [Example I-36, 1-[4-fluoro-2-methoxy-5-(propan-2-yl)phenyl]-N-(quinoline-5-sulfonyl)cyclopropane-1-carboxamide]: the concentration for a half-maximal effect (EC50) by setting is: under setting [1], under 3 µM; under setting [2], under 3 µM. For the same molecule, under “with co-corrector”, the “Maximum % activity (with co-corrector)” value is “+++ (≥350)”. In addition, where the note is “without co-corrector”, the Emax is over 150%.
Take `COc1ccc(C(F)(F)F)cc1C1(C(=O)NS(=O)(=O)c2cccc3ncccc23)CC1` [Example I-37, 1-[2-methoxy-5-(trifluoromethyl)phenyl]-N-(quinoline-5-sulfonyl)cyclopropane-1-carboxamide]: the EC50 by setting is: under setting [1], under 3 µM; under setting [2], under 3 µM. Also, the “Maximum % activity (with co-corrector)” value (with co-corrector) is “+++ (≥350)”. Besides, where the note is “without co-corrector”, the Emax was over 150%.
`COc1ccc(C23CC(C2)C3)cc1C1(C(=O)NS(=O)(=O)c2cccc3ncccc23)CC1` [Example I-38, 1-[5-(bicyclo[1.1.1]pentan-1-yl)-2-methoxyphenyl]-N-(quinoline-5-sulfonyl)cyclopropane-1-carboxamide]: the EC50 under setting [1] was under 3 µM and the EC50 under setting [2] is under 3 µM. Further, where the note is “with co-corrector”, the “Maximum % activity (with co-corrector)” value is “+++ (≥350)”. For the setting “without co-corrector”, the Emax is over 150%.
With `COc1ccc(C(C)(C)C)cc1C1(C(=O)NS(=O)(=O)c2cccc3c2CCCN3)CC1` [Example I-39, 1-(5-tert-butyl-2-methoxyphenyl)-N-(1,2,3,4-tetrahydroquinoline-5-sulfonyl)cyclopropane-1-carboxamide], the EC50 is, setting by setting: under setting [1], under 3 µM; under setting [2], under 3 µM. Under “with co-corrector”, the “Maximum % activity (with co-corrector)” value is “+++ (≥350)”. For the setting “without co-corrector”, the Emax is over 150%.
Take `COc1ccc(C)c(OC)c1C1(C(=O)NS(=O)(=O)c2cccc3ccccc23)CC1` [Example I-40, 1-(2,6-dimethoxy-3-methylphenyl)-N-(naphthalene-1-sulfonyl)cyclopropane-1-carboxamide]: the EC50 runs as follows: under setting [1], under 3 µM; under setting [2], under 3 µM. Moreover, the “Maximum % activity (with co-corrector)” value (with co-corrector) was “+++ (≥350)”. The Emax (without co-corrector) is over 150%.
Consider `COc1ccc(C)c(OC)c1C1(C(=O)NS(=O)(=O)c2cccc3ncccc23)CC1` [Example I-41, 1-(2,6-dimethoxy-3-methylphenyl)-N-(quinoline-5-sulfonyl)cyclopropane-1-carboxamide], for which the EC50 is under 3 µM under setting [1] and under 3 µM under setting [2]. Moreover, the “Maximum % activity (with co-corrector)” value (with co-corrector) was “+++ (≥350)”. Also, the Emax (without co-corrector) was over 150%.
For `COc1ccc(C)c(OC)c1C1(C(=O)NS(=O)(=O)c2cccc3[nH]ccc23)CC1` [Example I-42, 1-(2,6-dimethoxy-3-methylphenyl)-N-(1H-indole-4-sulfonyl)cyclopropane-1-carboxamide], the concentration giving a half-maximal response (EC50) under setting [1] was under 3 µM and the EC50 under setting [2] was under 3 µM. Further, the “Maximum % activity (with co-corrector)” value (with co-corrector) is “+++ (≥350)”. Besides, the Emax (without co-corrector) was over 150%.
